We go through two molecules from PMC8179358, “An explicitly designed paratope of amyloid-β prevents neuronal apoptosis in vitro and hippocampal damage in rat brain” (Chemical Science, 2020).

pKd: −log10 of the molar value. *1 amine or outer side, *2 acyl side, *3 side chain or, on linkers, in order; H or OH if unused. Where a SMILES comes first, the peptide text is derived from it. Bridges are numbered along the chain shown (N, C = ends). Roman numbers before positions name the chains, in order. [ ]: non-standard residue; d: D form. X1 = O=C(CCCCC(=O)[*:2])NCCCOCCOCCOCCCNC(=O)CCC(=O)[*:1]; NMeF = CN[C@@H](Cc1ccccc1)C(=O)O; NMeL = CN[C@@H](CC(C)C)C(=O)O; NMeV = CN[C@H](C(=O)O)C(C)C

One series concerns the target T1, Aβ40 (Homo sapiens, UniProt P05067).
T1 construct: 15N labeled (a) Aβ40 (80 μM)
The experiment in a line: NMR titration with SVD, residue-specific KD. The series is classed as binding. To be noted: residues R5, L17, V24, K28, and G29 of Aβ40, read-out: dissociation constant (KD).

The next series concerns Sprague-Dawley rats. In words: Sub-chronic toxicity, hematological and biochemical parameters. As to conditions: for Basophil / Total Bilirubin / Creatinine / Eosinophil / Monocyte / RBC / WBC / Serum Urea / SGPT / Lymphocyte / SGOT / Neutrophil / Glucose / ALP: iv, 42 days, n = 8; for Basophil: control 0.00±0.00; for Total Bilirubin: control 0.58±0.04; for Creatinine: control 0.73±0.02; for Eosinophil: control 3.12±0.61; for Monocyte: control 3.20±0.99; for RBC: control 4.77±1.54; for WBC: control 6.60±1.20; for Serum Urea: control 26±1.45; for SGPT: control 38.0±1.70; for Lymphocyte: control 38.2±3.25; for SGOT: control 52.0±2.21; for Neutrophil: control 56.6±2.31; for Glucose: control 103.0±1.34; for ALP: control 111.0±3.46. Type of series: in vivo. Here is the method: The tabulated biochemical profile (novel biomarkers of the liver and kidney) corroborates the safety charms of SP1 for further in vivo studies.
24 male Sprague Dawley rats were randomly divided into three groups: control, SP1A, and SP1B. Each group contains 8 animals and administration of SP1was performed for 42 days through a tail vein by the following schedule: Control: Without any treatment.
Rats were sacrificed after 42 days of injection schedule and blood was collected for hematological and biochemical estimations. For the histopathological study, the liver and kidney were also isolated very carefully and checked for cytoarchitectural changes if any.
The body weights and volumes of SP1 to be administered were recorded for each animal. Prior to injection, the tail of the animal was warmed by using warm water circulating pad placed under the cage for 5-10 minutes to dilate the veins. A 25-gauge needle was inserted into the vein towards the direction of the head. The needle and syringe were kept parallel to the tail. […]
µg/kg and 500 µg/kg) was injected into the tail slowly. The needle was removed very carefully and gentle compression applied until bleeding was stopped. Animals were returned to their home cage.
The biochemical parameters including blood glucose, serum urea, creatinine, total bilirubin, serum glutamic oxaloacetic transaminase (SGOT), serum glutamic pyruvic transaminase (SGPT), and alkaline phosphatase (ALP) were analyzed for sub-chronic toxicity of SP1by using commercially available diagnostic test kits (Crest Biosystems kits, India). Blood parameters like red blood cells, white blood cells, hemoglobin, neutrophil, lymphocyte, eosinophil, monocyte, and basophil were estimated using standard kits by following the manufacturer’s manual.

The next series concerns Bax, Bcl-2. In words: Western blot, Bax and Bcl-2. The series is classed as cell-based, human. As to conditions: Aβ40 alone (10 μM), compared to healthy cells. Here is the method: e. Measurement of intracellular calcium (Ca 2+)
Ca2+sensitive dye Fura-2AM was used to measure free intracellular Ca2+level in SH-SY5Y cell suspension by the previously described method.12 Following treatment with the respective drug, Fura-2 AM (Cayman, USA) at a concentration of 5 µM was added to the culture medium and incubated at 37°C for 45 min. Next, Krebs-Ringer-HEPES (KRH) buffer (135mM NaCl, 5mM KCl, 1mM MgSO4, 0.4mM KH2PO4, 1mM CaCl2, 5.5mM glucose, 20mM HEPES, pH 7.4) was used to wash each plate twice containing (1×10^6cells). Fluorescent microplate reader (FLX 800, Biotek, USA) was used to measure the fluorescence intensity with an excitation and emission spectra of […], respectively. Results are Mean±SEM of quadruplicate measurements from three separate experiments and expressed in the increase in percent relative fluorescent unit (RFU) relative to the baseline reading.
Western blot analysis was performed to measure Bax, Bcl-2, cleaved Caspase 9 and cleaved Caspase 3, pro and anti-apoptotic proteins expression. About 5× 10^6 cells were washed with PBS twice following […]
overnight. […] The optical density (OD) value of each band was analyzed by the electrophoresis image analysis system (Smartview 2001, S/N: SV-0002202, Japan) and normalized against the corresponding β-actin band. […]
In general terms: In western blotting, separated proteins are transferred to a membrane and probed.

[1] abbreviates: SP1 500 µg/kg, *P<0.01 vs control.

Usually pKd stands for the negative decadic logarithm of the Kd, by convention in mol/L. On to `CC(C)C[C@H](NC(=O)CNC(=O)CCC(=O)NCCCOCCOCCOCCCNC(=O)CCCCC(=O)NCC(=O)N(C)[C@@H](CC(C)C)C(=O)N[C@H](C(=O)N(C)[C@@H](Cc1ccccc1)C(=O)N[C@@H](Cc1ccccc1)C(=O)N[C@@H](C)C(N)=O)C(C)C)C(=O)N(C)[C@H](C(=O)N[C@@H](Cc1ccccc1)C(=O)N(C)[C@@H](Cc1ccccc1)C(=O)N[C@@H](C)C(N)=O)C(C)C` [SP1] (I: GL[NMeV]F[NMeF]A-NH2 / II: G[NMeL]V[NMeF]FA-NH2; linker I:N-II:N via X1), for which the pKd on Aβ40 was ~3.70. The “hematological and biochemical parameters, summary” value with Sprague-Dawley rats (100 μg kg−1, 42 days) was “did not find any severe changes in the hematological and biochemical parameters”. In addition, the “hematological and biochemical parameters, summary” value in the series on Sprague-Dawley rats (500 μg kg−1, 42 days) is “Almost similar observations in rats treated with SP1 (500 μg kg^−1) were revealed, except for monocyte and SGOT levels”. Also, in the series on Sprague-Dawley rats (SP1 100 µg/kg), the Basophil is on record as 0.00±0.00%, the “Total Bilirubin” value came out at 0.54 ± 0.09 mg/dL, the Creatinine stood at 0.69 ± 0.05 mg/dL and the Eosinophil was 2.62±0.82%. In addition, in the series with Sprague-Dawley rats (SP1 100 µg/kg), the Monocyte turned out to be 3.8±1.08%, the RBC is on record as 5.20±1.23 10^6/mm3, the WBC was 5.80±1.34 10^3/mm3 and the “Serum Urea” value turned out to be 32.0 ± 1.83 mg/dL. Besides, in the series with Sprague-Dawley rats (SP1 100 µg/kg), the SGPT is 44.0±1.84 IU/L, the Lymphocyte is reported as 42.3±2.92%, the SGOT is recorded as 55.0±2.94 IU/L and the Neutrophil came out at 58.00±2.54%. In the series with Sprague-Dawley rats (SP1 100 µg/kg), the Glucose came to 110.0 ± 1.36 mg/dL and the ALP was found to be 120.0±3.68 IU/L. Besides, in the series on Sprague-Dawley rats (SP1 500 µg/kg), the Basophil was 0.00±0.00%, the “Total Bilirubin” value worked out at 0.72 ± 0.06 mg/dL, the Creatinine came to 0.86 ± 0.03 mg/dL and the Eosinophil was 2.72±0.53%. Further, in the series with Sprague-Dawley rats (SP1 500 µg/kg), the RBC is on record as 5.51±1.38 10^6/mm3, the WBC was 6.21±1.15 10^3/mm3, the “Serum Urea” value amounted to 29.0 ± 1.66 mg/dL and the SGPT is recorded as 40.32±1.63 IU/L. In the series on Sprague-Dawley rats (SP1 500 µg/kg), the Lymphocyte amounted to 40.5±3.12%, the Neutrophil is listed as 62.10±2.42%, the Glucose was 105.0 ± 1.28 mg/dL and the ALP was found to be 116.0±2.15 IU/L. Also, in the series with Sprague-Dawley rats (setting [1]), the Monocyte is on record as 5.20±1.24% and the SGOT is 64.2±2.56 IU/L.

For the molecule “Aβ40: commercially available Aβ40 peptide”, in the series with Bax, Bcl-2, the “ratio of Bax/Bcl-2 expression” value is given as ~3.2 fold.
